This note sets out measurements from patent US20240043444A1, “METHODS FOR TREATING SPINOCEREBELLAR ATAXIA TYPE 3” (PTC Therapeutics, Inc., priority 2021, published 2024).

The subject of assay [1] is Endogenous Total ATXN3 (tATXN3) Protein. Put plainly: Endogenous Total ATXN3 (tATXN3) Protein Assay (MSD immunoassay of cell lysates). Format: cell-based. The following applies: cells incubated with compound 48 h; 7-point concentration curve; MSD plate readout. The procedure:
Meso Scale Discovery (MSD) 96-well or 384-well plates were coated overnight at 4° C. with Ataxin 3 mouse monoclonal antibody (Invitrogen, MA3-082) at a concentration of […] in PBS (30 μL per well). Plates were then washed three times with 300 μL wash buffer (0.05% TWEEN®-20, polyethylene glycol sorbitan monolaurate, in PBS) and blocked (Meso Scale Diagnostics, R93BA-1; 5% BSA in PBS) for 2 h at room temperature with rotational shaking and then washed three times with wash buffer.
(§1) Test compounds were serially diluted 3.16-fold in 100% DMSO to generate a 7-point concentration curve. Aliquots of 0.5 μL of diluted compounds were transferred to a 96-well flat bottom plate by a liquid handler. An aliquot of 0.5 μL DMSO was also transferred to separate wells and used as controls. Duplicate samples were set up for each compound concentration and for the DMSO control.
Cells were thawed and incubated in cell culture media (DMEM, 10% FBS, and 1% antibiotic cocktail) for 72 h. Cells were trypsinized, counted, and re-suspended to a concentration of 100,000 cells/mL in cell culture media. A 100 μL aliquot of the cell suspensions were plated at 10,000 cells per well in the compound containing 96 well microtiter plate and incubated for in a cell culture incubator (37° C., 5% CO2, 100% relative humidity). After 48 h, the medium was removed and 50-100 μL of lysis buffer (Meso Scale Diagnostics, R60TX-2) containing 1× halt protease inhibitor cocktail of (Thermo Scientific, Halt™ Protease Inhibitor Cocktail, 78430) per well was added to cells to provide a “cell lysate”. The plate was placed on a shaker at 4° C. for 30 minutes, then stored at −80° C.
Cell lysate samples (25 μL) were transferred to the antibody-coated MSD plate and incubated overnight at 4° C. After removal of the lysates, the plate was washed three times with wash buffer, and 25 μL of Ataxin 3 recombinant rabbit monoclonal antibody (Invitrogen, #702788) secondary antibody (diluted to 0.25 μg/mL in 0.05% TWEEN®-20 in blocking buffer) was added to each well and incubated with shaking for 1-2 h at room temperature. Following incubation with the secondary antibody, the wells were rinsed with wash buffer and then 25 μL of Anti Rabbit Antibody Goat SULFO-TAG Labeled (Meso Scale Diagnostics, R32AB-1) detecting antibody (diluted to 0.25 μg/mL in 0.05% TWEEN®-20 in blocking buffer) was added to each well and incubated with shaking for 1 h at room temperature. After rinsing three times with wash buffer, 150 μL of Read Buffer T with surfactant (tris-based buffer containing tripropylamine, Meso Scale Diagnostics, R92TC-1) were added to each empty well, and the plate was imaged on a SI 6000 imager (MSD) according to manufacturers' instructions provided for 96- or 384-well plates.

The subject of assay [2] is ATXN3 Pre-mRNA (exon 4 skipping). The assay can be described thus: RT-qPCR Assay to Quantify Exon 4 Skipping in ATXN3 Pre-mRNA in Cells. Format: cell-based. The note with it: cells incubated with compound 24 h, normalised to GAPDH, 7-point concentration curve. The procedure: as §1
Cells were thawed and incubated in cell culture media (DMEM, 10% FBS, and 1% antibiotic cocktail) for 72 h. Cells were trypsinized, counted, and re-suspended to a concentration of 100,000 cells/mL in cell culture media. A 100 μL aliquot of the cell suspensions were plated at 10,000 cells per well in the compound containing 96 well microtiter plate and incubated for in a cell culture incubator (37° C., 5% CO2, 100% relative humidity).
After 24 h, media was aspirated from the cells and 50 μL of the RCL2 lysis buffer (10 mM Tris-HCL pH 7.4, 150 mM NaCl, 0.33% IGEPAL® CA-630) was added to each well and incubated at room temperature for 1 min. Chilled nuclease free water (50 μL per well) was added and the plates were immediately transferred on ice. After 1 min on ice, plates were frozen at −80° C. overnight.
Preparation of RT-qPCR Reaction Mixture:
An aliquot of 2 μL/well of the cell lysates was transferred using the liquid handler to the Armadillo 384-Well PCR plate containing 8 μL/well of the RT-qPCR reaction mixture that was prepared as detailed above. The plates were then sealed with MicroAmp™ Optical Adhesive Film followed by spinning down for 1 min and placed in the CFX384 thermocycler (BioRad).
The RT-qPCR was carried out at the following temperatures for the indicated time: • Step 1: 48° C. (30 min) • Step 2: 95° C. (10 min) • Step 3: 95° C. (15 sec) • Step 4: 60° C. (1 min); then, repeated Steps 3 and 4 for a total of 40 cycles.
The percent exon 4 skipping was calculated for each dose of compound treatment using Equations 1 and 2.
Data were fit to a dose response curve and the IC50 was interpolated using XLfit® statistical and curve fitting package.
An IC50 value between >2.0 μM and ≤3.0 μM is indicated by one star (*). […] IC50 value between >0.5 μM and ≤1.0 μM is indicated by four stars (****). An IC50 value ≤0.5 μM is indicated by five stars (*****).
Background: Quantitative PCR measures a nucleic acid by following its amplification.

A value given as a limit tells only on which side of the number the result lay.

In general, IC50 refers to the concentration at which inhibition is half-maximal.

Regarding `CC(C)[C@H](N)Cc1cc2nc(Cl)nc(NCc3ccco3)c2s1` [Cpd 5, 6-[(2R)-2-amino-3-methylbutyl]-2-chloro-N-[(furan-2-yl)methyl]thieno[3,2-d]pyrimidin-4-amine], the half-inhibitory concentration (IC50) is at most 500 nM in assay [1] and 500 to 1000 nM in assay [2].
In the case of `CC(C)(C)[C@H](N)Cc1cc2nc(Cl)nc(NCc3ccco3)c2s1` [Cpd 7, 6-[(2R)-2-amino-3,3-dimethylbutyl]-2-chloro-N-[(furan-2-yl)methyl]thieno[3,2-d]pyrimidin-4-amine], in assay [1], the “IC50 (average, total ATXN3 protein)” value was “inactive”. Moreover, the “IC50 (exon 4 skipping in ATXN3 pre-mRNA)” value in assay [2] is “inactive”.
On to `Cc1c(C[C@H](C)N)sc2c(NCc3ccco3)nc(Cl)nc12` [Cpd 12, 6-[(2S)-2-aminopropyl]-2-chloro-N-[(furan-2-yl)methyl]-7-methylthieno[3,2-d]pyrimidin-4-amine], for which the IC50 in assay [1] and in assay [2] was at most 500 nM throughout.
Turning to `Cc1nc(NCc2ccco2)c2sc(C[C@H](C)N)c(C)c2n1` [Cpd 15, 6-[(2S)-2-aminopropyl]-N-[(furan-2-yl)methyl]-2,7-dimethylthieno[3,2-d]pyrimidin-4-amine], the 50% inhibitory concentration (IC50) in assay [1] was 500 to 1000 nM; in assay [2], at most 500 nM.
As for `Cc1csc2c(NCc3ccncc3)nc(Cl)nc12` [Cpd 23, 2-chloro-7-methyl-N-[(pyridin-4-yl)methyl]thieno[3,2-d]pyrimidin-4-amine], the “IC50 (average, total ATXN3 protein)” value in assay [1] is “inactive”. Also, the “IC50 (exon 4 skipping in ATXN3 pre-mRNA)” value in assay [2] was “inactive”.
As for `Cc1ccc(CNc2nc(Cl)nc3c(C)c(C[C@H](C)N)sc23)o1` [Cpd 24, 6-[(2S)-2-aminopropyl]-2-chloro-7-methyl-N-[(5-methylfuran-2-yl)methyl]thieno[3,2-d]pyrimidin-4-amine], the IC50 in assay [1] is over 2000 nM; in assay [2], 1500 to 2000 nM.
As to `Cc1csc(CNc2nc(Cl)nc3c(C)c(C[C@H](C)N)sc23)n1` [Cpd 27, 6-[(2S)-2-aminopropyl]-2-chloro-7-methyl-N-[(4-methyl-1,3-thiazol-2-yl)methyl]thieno[3,2-d]pyrimidin-4-amine], the “IC50 (average, total ATXN3 protein)” value in assay [1] is “inactive”. Moreover, the half-maximal inhibitory concentration (IC50) in assay [2] was in the range of 2000 to 3000 nM.
For the compound `Cc1c(C[C@H](C)N)sc2c(NCc3cccs3)nc(Cl)nc12` [Cpd 28, 6-[(2S)-2-aminopropyl]-2-chloro-7-methyl-N-[(thiophen-2-yl)methyl]thieno[3,2-d]pyrimidin-4-amine], the concentration for half-maximal inhibition (IC50) in assay [1] and in assay [2] was at most 500 nM each time.
On to `Cc1c(C[C@H](C)N)sc2c(NCc3nccs3)nc(Cl)nc12` [Cpd 29, 6-[(2S)-2-aminopropyl]-2-chloro-7-methyl-N-[(1,3-thiazol-2-yl)methyl]thieno[3,2-d]pyrimidin-4-amine], for which the IC50 in assay [1] and in assay [2] was at most 500 nM throughout.
With `Cc1ccoc1CNc1nc(Cl)nc2c(C)c(C[C@H](C)N)sc12` [Cpd 30, 6-[(2S)-2-aminopropyl]-2-chloro-7-methyl-N-[(3-methylfuran-2-yl)methyl]thieno[3,2-d]pyrimidin-4-amine], the 50% inhibitory concentration (IC50) in assay [1] lay in the range of 1500 to 2000 nM; in assay [2] it was 1000 to 1500 nM.
With `Cc1cnc(CNc2nc(Cl)nc3c(C)c(C[C@H](C)N)sc23)s1` [Cpd 31, 6-[(2S)-2-aminopropyl]-2-chloro-7-methyl-N-[(5-methyl-1,3-thiazol-2-yl)methyl]thieno[3,2-d]pyrimidin-4-amine], the values for the 50% inhibitory concentration (IC50) in assay [1] and in assay [2] were over 2000 nM and 2000 to 3000 nM, respectively.
Turning to `Cc1c(C[C@H](C)N)sc2c(NCc3ccc(F)s3)nc(Cl)nc12` [Cpd 33, 6-[(2S)-2-aminopropyl]-2-chloro-N-[(5-fluorothiophen-2-yl)methyl]-7-methylthieno[3,2-d]pyrimidin-4-amine], the concentration for half-maximal inhibition (IC50) in assay [1] and in assay [2] was at most 500 nM in each case.
`Cc1c(C[C@H](C)N)sc2c(NCc3ccncc3F)nc(Cl)nc12` [Cpd 35, 6-[(2S)-2-aminopropyl]-2-chloro-N-[(3-fluoropyridin-4-yl)methyl]-7-methylthieno[3,2-d]pyrimidin-4-amine]: the concentration for half-maximal inhibition (IC50) in assay [1] and in assay [2] was at most 500 nM each time.
Consider `Cc1c(C[C@H](C)N)sc2c(NCc3ccco3)nc(Br)nc12` [Cpd 38, 6-[(2S)-2-aminopropyl]-2-bromo-N-[(furan-2-yl)methyl]-7-methylthieno[3,2-d]pyrimidin-4-amine], for which the half-inhibitory concentration (IC50) in assay [1] and in assay [2] was at most 500 nM throughout.
Turning to `Cc1c(C[C@H](C)N)sc2c(NCc3ccno3)nc(Cl)nc12` [Cpd 39, 6-[(2S)-2-aminopropyl]-2-chloro-7-methyl-N-[(1,2-oxazol-5-yl)methyl]thieno[3,2-d]pyrimidin-4-amine], the IC50 in assay [1] and in assay [2] was at most 500 nM each time.
With `C[C@H](N)Cc1sc2c(NCc3ccco3)nc(Cl)nc2c1Br` [Cpd 40, 6-[(2S)-2-aminopropyl]-7-bromo-2-chloro-N-[(furan-2-yl)methyl]thieno[3,2-d]pyrimidin-4-amine], the IC50 in assay [1] and in assay [2] was at most 500 nM throughout.
Turning to `Cc1c([C@H](C)N)sc2c(NCc3ccco3)nc(Cl)nc12` [Cpd 47, 6-[(1S)-1-aminoethyl]-2-chloro-N-[(furan-2-yl)methyl]-7-methylthieno[3,2-d]pyrimidin-4-amine], the “IC50 (average, total ATXN3 protein)” value in assay [1] is “inactive”. Also, the “IC50 (exon 4 skipping in ATXN3 pre-mRNA)” value in assay [2] is “inactive”.
In the case of `Cc1c(C[C@@H](N)CCF)sc2c(NCc3ccco3)nc(Cl)nc12` [Cpd 51, 6-[(2S)-2-amino-4-fluorobutyl]-2-chloro-N-[(furan-2-yl)methyl]-7-methylthieno[3,2-d]pyrimidin-4-amine], the IC50 in assay [1] and in assay [2] was at most 500 nM throughout.
As for `Cc1c(C[C@@H]2CCOC(=O)N2)sc2c(NCc3ccco3)nc(Cl)nc12` [Cpd 52, (4S)-4-[(2-chloro-4-{[(furan-2-yl)methyl]amino}-7-methylthieno[3,2-d]pyrimidin-6-yl)methyl]-1,3-oxazinan-2-one], in assay [1], the IC50 was over 2000 nM. The “IC50 (exon 4 skipping in ATXN3 pre-mRNA)” value in assay [2] was “inactive”.
As for `Cc1c(C[C@H](C)N)sc2c(NCc3ncccn3)nc(Cl)nc12` [Cpd 55, 6-[(2S)-2-aminopropyl]-2-chloro-7-methyl-N-[(pyrimidin-2-yl)methyl]thieno[3,2-d]pyrimidin-4-amine], the values for the IC50 in assay [1] and in assay [2] were over 2000 nM and 2000 to 3000 nM, respectively.
In the case of `Cc1c(C[C@@H](N)CO)sc2c(NCc3cccs3)nc(Cl)nc12` [Cpd 56, (2R)-2-amino-3-(2-chloro-7-methyl-4-{[(thiophen-2-yl)methyl]amino}thieno[3,2-d]pyrimidin-6-yl)propan-1-ol], the IC50 in assay [1] and in assay [2] was at most 500 nM each time.
Regarding `Cc1c(C2CCNC2)sc2c(NCc3ccco3)nc(Cl)nc12` (centres unmarked) [Cpd 57, 2-chloro-N-[(furan-2-yl)methyl]-7-methyl-6-(pyrrolidin-3-yl)thieno[3,2-d]pyrimidin-4-amine], the “IC50 (average, total ATXN3 protein)” value in assay [1] is “inactive”. The “IC50 (exon 4 skipping in ATXN3 pre-mRNA)” value in assay [2] was “inactive”.
